Target: T1, FSHR (Homo sapiens, UniProt P23945)
T1 construct: expressed in transfected cells; host or cells: CHO (Cho-FSHR-LUC-1-1-43)
Assay: EC50 of cyclic AMP production in CHO FSHR cells + EC20 FSH (Assay A)
Type: cell-based
Conditions: Table 1; for EC50: CHO FSHR cells + EC20 FSH, read-out: Assay A EC50 of cyclic AMP production; for activation at 5 µM: 1 h, effect relative to maximum response of the FSH standard
Method: Example 10: EC50 of Cyclic AMP Production in CHO FSHR Cells+EC20 FSH (Assay A)
2500 Cho-FSHR-LUC-1-1-43 cells were plated per well in 5 μl of phenol red free DMEM/F12+1% FBS. Cells were plated in 384 well, solid white low volume plates (Greiner 784075) by Multidrop. Cells were assayed by adding 100 μl of 2×EC20 FSH/IBMX in DMEM/F12+0.1% BSA) by Multidrop to 2 μl of test compound stamped in 384 well plates (compounds are diluted 1:50). The final FSH concentration was […], and the final IBMX concentration was 200 μM. The compound plate map was as follows: Column 1: 2 μl of DMSO; Column 2: 2 μl of DMSO; Columns 3-12 and 13-24: 2 μl of test compound, diluted 1:4 in 100% DMSO, or 2 μl of FSH, diluted 1:4 in DMEM/F12+0.1% BSA. The starting concentration for FSH was 50 nM (final concentration was 0.5 nM). […] 5 μl of compound+EC20 FSH mixture were transferred to cell plates (1:2 dilution into 5 μl of cell media) The plates were incubated at 37° C. for 1 h. 10 μl of mixed HTRF (CisBio #62AM4PEC) reagents were added per well and incubated at room temperature for 1 h. The plates were read on Envision using the cAMP HTRF—low volume 384 well protocol. The readout was the calculated fluorescence ratio (665 nm/620 nm). Values given in percent (%) indicate the percental effect (response) at a certain concentration of agonist relative to the maximum response of the FSH standard.

T1 sequence (P23945 18-695): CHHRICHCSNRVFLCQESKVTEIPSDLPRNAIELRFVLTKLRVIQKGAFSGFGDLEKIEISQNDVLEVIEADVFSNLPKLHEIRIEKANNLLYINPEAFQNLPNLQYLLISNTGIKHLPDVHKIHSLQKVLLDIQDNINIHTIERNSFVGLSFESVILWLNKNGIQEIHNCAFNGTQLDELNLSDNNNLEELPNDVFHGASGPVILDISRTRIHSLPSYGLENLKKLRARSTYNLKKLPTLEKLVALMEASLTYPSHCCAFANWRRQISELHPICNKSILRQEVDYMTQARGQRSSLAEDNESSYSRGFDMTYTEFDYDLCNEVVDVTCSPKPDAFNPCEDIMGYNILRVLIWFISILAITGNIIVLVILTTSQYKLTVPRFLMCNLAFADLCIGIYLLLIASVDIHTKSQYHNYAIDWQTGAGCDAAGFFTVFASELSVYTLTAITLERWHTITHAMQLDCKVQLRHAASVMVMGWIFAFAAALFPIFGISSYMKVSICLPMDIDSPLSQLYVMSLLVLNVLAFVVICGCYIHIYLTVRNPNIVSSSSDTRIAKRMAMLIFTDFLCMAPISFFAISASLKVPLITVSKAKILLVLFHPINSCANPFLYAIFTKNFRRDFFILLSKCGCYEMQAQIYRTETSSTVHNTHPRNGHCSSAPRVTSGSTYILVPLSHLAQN
T1 sequence (P01215 25-116 partner): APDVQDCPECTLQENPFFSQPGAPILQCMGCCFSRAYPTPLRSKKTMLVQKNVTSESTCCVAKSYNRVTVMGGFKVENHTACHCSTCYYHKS
T1 sequence (P01225 19-129 partner): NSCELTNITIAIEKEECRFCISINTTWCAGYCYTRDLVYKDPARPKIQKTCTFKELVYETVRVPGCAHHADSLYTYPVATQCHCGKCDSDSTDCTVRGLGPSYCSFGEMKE

An EC50 of 100 to 1000 nM was found for `COc1ccc(C(=O)Nc2cc(C(=O)NCCCN3CCCC3=O)ccc2N2CCN(c3ccccc3C)CC2)cc1` [Compound 42] in this work.

An activation at 5 µM of 44% was found for `Cc1ccccc1N1CCN(c2ccc(C(=O)NCCCN3CCCC3=O)cc2NC(=O)c2ccc3ccccc3c2)CC1` [Compound 43] in this work.

An activation at 5 µM of 44% was found for `Cc1ccccc1N1CCN(c2ccc(C(=O)NCCCN3CCCC3=O)cc2NC(=O)c2cccc3cccnc23)CC1` [Compound 44] in this work.

An activation at 5 µM of 10% was found for `Cc1ccccc1N1CCN(c2ccc(C(=O)NCCCN3CCCC3=O)cc2NS(=O)(=O)c2ccco2)CC1` [Compound 46] in this work.

An EC50 of 1000 to 10000 nM was found for `CCNC(=O)N1CCC[C@@H](NC(=O)c2ccc(N3CCN(c4ccccc4C)CC3)c(NC(=O)c3ccco3)c2)C1` [Compound 48, (R)-3-[3-[(furan-2-carbonyl)-amino]-4-(4-o-tolyl-piperazin-1-yl)-benzoylamino]-piperidine-1-carboxylic acid ethylamide] in this work.

An EC50 of 100 to 1000 nM was found for `Cc1ccccc1N1CCN(c2ccc(C(=O)NC3CCN(C(=O)OC(C)(C)C)CC3)cc2NC(=O)c2ccco2)CC1` [Compound 49, 4-[3-[(Furan-2-carbonyl)-amino]-4-(4-o-tolyl-piperazin-1-yl)-benzoylamino]-piperidine-1-carboxylic acid tert-butyl ester] in this work.

An activation at 5 µM of 39% was found for `Cc1cc(C)c(C(=O)Nc2cc(C(=O)NCCCN3CCCC3=O)ccc2N2CCN(c3ccccc3C)CC2)o1` [Compound 51] in this work.

An EC50 of 1000 to 10000 nM was found for `CNC[C@@H](NC(=O)c1ccc(N2CCN(c3ccccc3C)CC2)c(NC(=O)c2ccco2)c1)c1ccc(Cl)cc1` [Compound 55, Furan-2-carboxylic acid [5-[(S)-1-(4-chloro-phenyl)-2-methylamino-ethylcarbamoyl]-2-(4-o-tolyl-piperazin-1-yl)-phenyl]-amide] in this work.

An EC50 of 1000 to 10000 nM was found for `CC(=O)N1CCC(NC(=O)c2ccc(N3CCN(c4ccccc4C)CC3)c(NC(=O)c3ccco3)c2)CC1` [Compound 56, Furan-2-carboxylic acid [5-(1-acetyl-piperidin-4-ylcarbamoyl)-2-(4-o-tolyl-piperazin-1-yl)-phenyl]-amide] in this work.

An EC50 of 1000 to 10000 nM was found for `CC(=O)N(C)C[C@@H](NC(=O)c1ccc(N2CCN(c3ccccc3C)CC2)c(NC(=O)c2ccco2)c1)c1ccc(Cl)cc1` [Compound 57] in this work.

An EC50 of 1000 to 10000 nM was found for `COc1ccc(C(=O)Nc2cc(C(=O)NCCCN3CCCC3=O)ccc2N2CCN(c3ccccc3C)CC2)c(OC)c1` [Compound 59] in this work.

An activation at 5 µM of 42% was found for `CCOC(=O)N1CCN(c2ccc(C(=O)NCCCN3CCCC3=O)cc2NC(=O)c2ccco2)CC1` [Compound 62, 4-{2-[(Furan-2-carbonyl)-amino]-4-[3-(2-oxo-pyrrolidin-1-yl)-propylcarbamoyl]-phenyl}-piperazine-1-carboxylic acid ethyl ester] in this work.

An activation at 5 µM of 72% was found for `Cc1ccccc1N1CCN(c2ccc(C(=O)NCCN(C)C(=O)OC(C)(C)C)cc2NC(=O)c2ccco2)CC1` [Compound 64, {2-[3-[(Furan-2-carbonyl)-amino]-4-(4-o-tolyl-piperazin-1-yl)-benzoylamino]-ethyl}-methyl-carbamic acid tert-butyl ester] in this work.

An EC50 of 1000 to 10000 nM was found for `CCOc1cc(CCNC(=O)c2ccc(N3CCN(c4ccccc4C)CC3)c(NC(=O)c3ccco3)c2)ccc1OC` [Compound 65] in this work.

An EC50 of 100 to 1000 nM was found for `Cc1ccccc1N1CCN(c2ccc(C(=O)N[C@H](CO)c3ccccc3)cc2NC(=O)c2ccco2)CC1` [Compound 67, Furan-2-carboxylic acid [5-((S)-2-hydroxy-1-phenyl-ethylcarbamoyl)-2-(4-o-tolyl-piperazin-1-yl)-phenyl]-amide] in this work.

An EC50 of 1000 to 10000 nM was found for `Cc1ccccc1N1CCN(c2ccc(C(=O)NCCCN3CCCC3=O)cc2NC(=O)c2ccoc2C)CC1` [Compound 68] in this work.

An EC50 of 100 to 1000 nM was found for `Cc1ccccc1N1CCN(c2ccc(C(=O)NCCCN3CCCC3=O)cc2NC(=O)c2ccsc2)CC1` [Compound 69] in this work.

An EC50 of over 10000 nM was found for `Cc1ccccc1N1CCN(c2ccc(C(=O)NCCCN3CCCC3=O)cc2NC(=O)c2scnc2C)CC1` [Compound 70] in this work.

An EC50 of 1000 to 10000 nM was found for `Cc1nc(C(F)(F)F)c(C(=O)Nc2cc(C(=O)NCCCN3CCCC3=O)ccc2N2CCN(c3ccccc3C)CC2)s1` [Compound 71] in this work.

An EC50 of over 10000 nM was found for `Cc1ccccc1N1CCN(c2ccc(C(=O)NCCCN3CCCC3=O)cc2NC(=O)c2sc(Br)nc2C)CC1` [Compound 72] in this work.

An EC50 of 1000 to 10000 nM was found for `Cc1nc(C(=O)Nc2cc(C(=O)NCCCN3CCCC3=O)ccc2N2CCN(c3ccccc3C)CC2)c(C(F)(F)F)o1` [Compound 76] in this work.

An EC50 of 1000 to 10000 nM was found for `CCc1ocnc1C(=O)Nc1cc(C(=O)NCCCN2CCCC2=O)ccc1N1CCN(c2ccccc2C)CC1` [Compound 77] in this work.

An EC50 of 100 to 1000 nM was found for `Cc1ccccc1N1CCN(c2ccc(C(=O)NCCCN3CCCC3=O)cc2NC(=O)c2ncoc2C)CC1` [Compound 78] in this work.

An activation at 5 µM of 22% was found for `Cc1ccccc1N1CCN(c2ccc(C(=O)NCCCN3CCCC3=O)cc2NC(=O)c2conc2C)CC1` [Compound 80] in this work.

An activation at 5 µM of 11% was found for `CCc1onc(C)c1C(=O)Nc1cc(C(=O)NCCCN2CCCC2=O)ccc1N1CCN(c2ccccc2C)CC1` [Compound 81] in this work.

An EC50 of 1000 to 10000 nM was found for `Cc1ccccc1N1CCN(c2ccc(C(=O)NCCCN3CCCC3=O)cc2NC(=O)C2CCCCC2)CC1` [Compound 82] in this work.

An activation at 5 µM of 8% was found for `Cc1ccccc1N1CCN(c2ccc(C(=O)NCCCN3CCCC3=O)cc2NC(=O)C2CCN(C)CC2)CC1` [Compound 83] in this work.

An activation at 5 µM of 47% was found for `Cc1ccccc1N1CCN(c2ccc(C(=O)NCCCN3CCCC3=O)cc2NC(=O)c2cccc(N(C)C)c2)CC1` [Compound 86] in this work.

An EC50 of 1000 to 10000 nM was found for `Cc1ccccc1N1CCN(c2ccc(C(=O)NCCCN3CCCC3=O)cc2NC(=O)c2ccccc2C(F)(F)F)CC1` [Compound 87] in this work.

An activation at 5 µM of 34% was found for `Cc1ccccc1N1CCN(c2ccc(C(=O)NCCCN3CCCC3=O)cc2NC(=O)c2cccc3ccccc23)CC1` [Compound 88] in this work.

An EC50 of 100 to 1000 nM was found for `Cc1ccccc1N1CCN(c2ccc(C(=O)NCCCc3ccccc3)cc2NC(=O)c2ccco2)CC1` [Compound 89] in this work.

An EC50 of 100 to 1000 nM was found for `Cc1ccccc1N1CCN(c2ccc(C(=O)NCCCn3cccn3)cc2NC(=O)c2ccco2)CC1` [Compound 90] in this work.

An EC50 of 1000 to 10000 nM was found for `Cc1ccccc1N1CCN(c2ccc(C(=O)N[C@@H](C)C(=O)NC3CCCC3)cc2NC(=O)c2ccco2)CC1` [Compound 91] in this work.

An EC50 of 1000 to 10000 nM was found for `Cc1ccccc1N1CCN(c2ccc(C(=O)NCCCN3CCCC3=O)cc2NC(=O)C2CCCO2)CC1` (stereo not drawn) [Compound 92] in this work.

An EC50 of 100 to 1000 nM was found for `COc1cccc(CNC(=O)c2ccc(N3CCN(c4ccccc4C)CC3)c(NC(=O)c3ccco3)c2)c1` [Compound 93, Furan-2-carboxylic acid [5-(3-methoxy-benzylcarbamoyl)-2-(4-o-tolyl-piperazin-1-yl)-phenyl]-amide] in this work.

An activation at 5 µM of 48% was found for `Cc1ccccc1N1CCN(c2ccc(C(=O)NCc3ccc(C(F)(F)F)cc3)cc2NC(=O)c2ccco2)CC1` [Compound 94, Furan-2-carboxylic acid [2-(4-o-tolyl-piperazin-1-yl)-5-(4-trifluoromethyl-benzylcarbamoyl)-phenyl]-amide] in this work.

An EC50 of 100 to 1000 nM was found for `COc1cc(CNC(=O)c2ccc(N3CCN(c4ccccc4C)CC3)c(NC(=O)c3ccco3)c2)cc(OC)c1` [Compound 95, Furan-2-carboxylic acid [5-(3,5-dimethoxy-benzylcarbamoyl)-2-(4-o-tolyl-piperazin-1-yl)-phenyl]-amide] in this work.

An EC50 of over 10000 nM was found for `Cc1ccccc1N1CCN(c2ccc(C(=O)NCc3cccc4ccccc34)cc2NC(=O)c2ccco2)CC1` [Compound 96, Furan-2-carboxylic acid [5-[(naphthalen-1-ylmethyl)-carbamoyl]-2-(4-o-tolyl-piperazin-1-yl)-phenyl]-amide] in this work.

An EC50 of 1000 to 10000 nM was found for `Cc1ccccc1N1CCN(c2ccc(C(=O)NCCCN3CCCC3=O)cc2NC(=O)c2ccno2)CC1` [Compound 98] in this work.

An activation at 5 µM of 35% was found for `Cc1ccccc1N1CCN(c2ccc(C(=O)NCCCN3CCCC3=O)cc2NC(=O)c2cncs2)CC1` [Compound 99] in this work.

An activation at 5 µM of 12% was found for `CCNc1nc(C)c(C(=O)Nc2cc(C(=O)NCCCN3CCCC3=O)ccc2N2CCN(c3ccccc3C)CC2)s1` [Compound 100] in this work.

An EC50 of 1000 to 10000 nM was found for `Cc1ccccc1N1CCN(c2ccc(C(=O)NCCCN3CCCC3=O)cc2NC(=O)c2csc(Br)n2)CC1` [Compound 101] in this work.

An EC50 of 1000 to 10000 nM was found for `Cc1nc(C(=O)Nc2cc(C(=O)NCCCN3CCCC3=O)ccc2N2CCN(c3ccccc3C)CC2)c(C)o1` [Compound 102] in this work.

An EC50 of 1000 to 10000 nM was found for `Cc1ccccc1N1CCN(c2ccc(C(=O)NCCCN3CCCC3=O)cc2NC(=O)c2cocn2)CC1` [Compound 103] in this work.

An activation at 5 µM of 33% was found for `Cc1ccccc1N1CCN(c2ccc(C(=O)NCCCN3CCCC3=O)cc2NC(=O)c2c(C)noc2C)CC1` [Compound 106] in this work.

An activation at 5 µM of 15% was found for `Cc1ccccc1N1CCN(c2ccc(C(=O)NCCCN3CCCC3=O)cc2NC(=O)c2cnoc2C)CC1` [Compound 107] in this work.

An activation at 5 µM of 10% was found for `Cc1ccccc1N1CCN(c2ccc(C(=O)NCCCN3CCCC3=O)cc2NC(=O)c2cnoc2C2CC2)CC1` [Compound 109] in this work.

An EC50 of 1000 to 10000 nM was found for `Cc1ccccc1N1CCN(c2ccc(C(=O)NCCCN3CCCC3=O)cc2NC(=O)c2csnn2)CC1` [Compound 110] in this work.
